A short description of this series: photoluminescence quantum yield (fraction); solvent given as SMILES.

On to `N#Cc1ccc(/C=C/c2ccc(C=C(c3ccccc3)c3ccccc3)cc2)cc1`, for which the photoluminescence quantum yield (in C1CCOC1) turned out to be 0.166.

Turning to `CC1=c2ccccc2=[N+]2C1=Cc1c3ccccc3c(-c3[nH]c4ccccc4c3C)n1[B-]2(F)F`, the photoluminescence quantum yield (in ClCCl) came to 0.08.

Regarding `Clc1ccc(/C=C/c2ccncn2)cc1`, the photoluminescence quantum yield (in ClCCl) was found to be 0.01.

Compound `C[Si]1(C)c2ccc(-c3ccc(-c4cccs4)s3)cc2C=Cc2cc(-c3ccc(-c4cccs4)s3)ccc21` displayed a photoluminescence quantum yield (in ClCCl) of 0.1.

Compound `CN(C)c1cc(-c2ccccc2)cc2cc(C#Cc3ccncc3)ccc12` yielded a photoluminescence quantum yield (in ClCCl) of 0.72.

Under “in Cc1ccccc1”, `CC1(C)OB(c2cc3ccc4cccc5ccc(c2)c3c45)OC1(C)C` had a photoluminescence quantum yield of 0.72.

With `O=c1cc2c(-c3c(O)c4cccc5ccc6oc(=O)cc3c6c54)c(O)c3cccc4ccc(o1)c2c43`, the photoluminescence quantum yield (in CC1CCCO1) was 0.13.

For the compound `Cn1ncc2c3c(C#N)c4c5ccccc5n(C)c4nc3ccc21`, under “in CCOC(C)=O”, the photoluminescence quantum yield was 0.51.

As for `N#Cc1cc(/C=C/c2ccc(/C=C/c3ccc(N(c4ccccc4)c4ccccc4)cc3)c(C#N)c2)ccc1/C=C/c1ccc(N(c2ccccc2)c2ccccc2)cc1`, where the note is “in ClCCl”, the photoluminescence quantum yield amounted to 0.32.

Compound `CCN(CC)c1ccc(/C=N/Nc2ccc(C#N)cc2)c(O)c1` returned a photoluminescence quantum yield (in CO) of 0.21.

As for `N#Cc1ccc(-c2cnc3cccc(-c4ccccc4)n23)cc1`, where the note is “in ClCCl”, the photoluminescence quantum yield was 0.19.

Take `C(#Cc1ccc2ncsc2c1)c1ccc(N(c2ccccc2)c2ccccc2)cc1`: the photoluminescence quantum yield (in Cc1ccccc1) was 0.23.

For the setting “in CC#N”, `CN(C)c1ccc(C#Cc2ccc3ccc(=O)oc3c2)cc1` gave a photoluminescence quantum yield of 0.009.

Consider `O=[N+]([O-])c1ccc(-c2nc(/C=C/c3ccc(Cl)cc3)c(/C=C/c3ccc(Cl)cc3)[nH]2)cc1`, for which the photoluminescence quantum yield (in ClCCl) is 0.

For the setting “in CN(C)C=O”, `Cc1nc2cccc(-c3nc4ccccc4o3)c2c(=O)[nH]1` displayed a photoluminescence quantum yield of 0.392.

For the compound `Fc1c(-n2c3ccccc3c3ccccc32)c(F)c(-n2c3ccccc3c3ccccc32)c(-c2nnc(-c3ccccc3)o2)c1-n1c2ccccc2c2ccccc21`, for the setting “in Cc1ccccc1”, the photoluminescence quantum yield stood at 0.06.

With `COC(=O)c1c(NC(C)(C)C)oc(-c2ccccc2)c1C(=O)OC`, under “in CC#N”, the photoluminescence quantum yield turned out to be 0.1.

In the case of `COC(=O)C1=NNC(C(=O)OC)=C2c3ccccc3C(=O)c3ccccc3C12` (configuration not stated), under “in CC#N”, the photoluminescence quantum yield was 0.32.

As for `CCN(CC)c1ccc2c(c1)oc(=O)c1cc3cnn(-c4ccccc4)c3nc12`, the photoluminescence quantum yield reads like this: (in C1CCCCC1) 0.717; (in CCOC(C)=O) 0.233; (in CN(C)C=O) 0.023; (in CO) 0.002; (in ClCCl) 0.325.

`CCOC(=O)c1ccc(NC(=O)COc2cc3c4c([nH]c3c(C)c2C)C(=O)CCC4)cc1` returned a photoluminescence quantum yield (in C1COCCO1) of 0.031; a photoluminescence quantum yield (in CC#N) of 0.131; a photoluminescence quantum yield (in CCO) of 0.097; a photoluminescence quantum yield (in CS(C)=O) of 0.123; a photoluminescence quantum yield (in O) of 0.037; a photoluminescence quantum yield (in c1ccccc1) of 0.075.

As for `Nc1ccc2c3cccc4cccc(c5cccc1c52)c43`, the photoluminescence quantum yield (in C1CCCCC1) was 0.55; the photoluminescence quantum yield (in C1CCOC1) came to 0.58; the photoluminescence quantum yield (in C1COCCO1) was found to be 0.28; the photoluminescence quantum yield (in CC(C)=O) came out at 0.5; the photoluminescence quantum yield (in CCCCOCCCC) was 0.24; the photoluminescence quantum yield (in CCOC(C)=O) worked out at 0.2. In addition, the photoluminescence quantum yield was determined as 0.56 (in CN(C)C=O), 0.45 (in CO) and 0.47 (in ClCCl).

`Fc1c(F)c(-n2c3ccccc3c3ccccc32)c(F)c(F)c1-c1nnc(-c2ccccc2)o1` gave a photoluminescence quantum yield (in Cc1ccccc1) of 0.27.

Under “in CO”, `C/C(=N\Nc1ccc(C#N)cc1)c1ccccn1` displayed a photoluminescence quantum yield of 0.28.

For `C(=C\c1ncc2ccccc2n1)/c1ccc(N2CCCCC2)cc1`, where the note is “in ClCCl”, the photoluminescence quantum yield stood at 0.21.

`COc1c(-c2c(OC)c3cccc4ccc5oc(=O)cc2c5c43)c2cc(=O)oc3ccc4cccc1c4c32`: where the note is “in CC1CCCO1”, the photoluminescence quantum yield amounted to 0.35.

These data come from the Deep4Chem optical property database.
